This test deals with RNA-directed RNA polymerase (Hepacivirus hominis, UniProt O39930). Nature of the test: Inhibitory concentration for NS5B RNA-dependent RNA polymerase of Hepatitis C virus.
RNA-directed RNA polymerase, sequence (O39930 whole entry): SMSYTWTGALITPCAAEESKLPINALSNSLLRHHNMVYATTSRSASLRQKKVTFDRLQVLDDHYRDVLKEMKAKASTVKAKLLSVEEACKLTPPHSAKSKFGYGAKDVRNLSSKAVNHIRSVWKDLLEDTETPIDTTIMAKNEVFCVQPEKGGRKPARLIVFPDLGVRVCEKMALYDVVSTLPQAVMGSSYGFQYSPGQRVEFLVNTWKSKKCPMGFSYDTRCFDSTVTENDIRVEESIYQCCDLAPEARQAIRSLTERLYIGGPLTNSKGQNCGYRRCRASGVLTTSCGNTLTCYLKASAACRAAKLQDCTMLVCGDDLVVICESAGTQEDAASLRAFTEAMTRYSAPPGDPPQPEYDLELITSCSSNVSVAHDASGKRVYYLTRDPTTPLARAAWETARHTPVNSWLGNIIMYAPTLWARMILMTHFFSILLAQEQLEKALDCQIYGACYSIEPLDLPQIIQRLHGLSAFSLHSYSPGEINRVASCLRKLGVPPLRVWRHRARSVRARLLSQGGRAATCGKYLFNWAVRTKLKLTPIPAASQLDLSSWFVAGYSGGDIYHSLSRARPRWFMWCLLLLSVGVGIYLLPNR

A word on the IC50: it is the concentration needed to halve the response being measured. `Cc1cc(S(=O)(=O)Nc2cc(-c3ccccc3)sc2C(=O)O)c(C)cc1Cl`: the IC50 was 5 µM. This lies in the single-digit micromolar range.

Molecule `O=C(O)c1sc(-c2ccccc2)cc1NS(=O)(=O)c1ccccn1` gave an IC50 of 25 µM. As to `Cc1ccccc1S(=O)(=O)Nc1cc(-c2ccncc2)sc1C(=O)O`, the midpoint of inhibition, the IC50, lay at 4 µM.

Turning to `O=C(O)c1sc(-c2ccccc2)cc1NS(=O)(=O)c1ccc(C(F)(F)F)cn1`, the concentration for half-maximal inhibition (IC50) was 15 µM.

`Cc1cc(S(=O)(=O)Nc2cc(-c3ccccc3)sc2C(N)=O)c(C)cc1Cl` returned an IC50 of 14 µM. The molecule `O=C(O)c1sc(-c2ccc(F)cc2)cc1NS(=O)(=O)c1ccccn1` gave an IC50 of 4 µM.

Values taken from ChEMBL document CHEMBL1137977, “HCV NS5B polymerase-bound conformation of a soluble sulfonamide inhibitor by 2D transferred NOESY” (Bioorg Med Chem Lett, 2004).
